Read-outs that look alike come from different tables or passages of the source.

Data set [1] concerns P. falciparum 3D7 (Pf3D7), CQ sensitive. Briefly: SYBR Green I growth inhibition assay, asynchronous P. falciparum 3D7 culture. The format is cell-based, Plasmodium falciparum. The settings on record: for IC50 (SE) µM / IC50 (SE) µg/mL: Pf3D7, asynchronous culture; for IC50: Plasmodium falciparum. The text has this:
Antimalarial activity of all the listed Pht analogues was initially assessed on asynchronous cultures of P. falciparum 3D7 (Pf3D7) clone using the SYBR Green assay. […] The mean IC50 values are based on three separate experiments (Table 1).
The laboratory-adapted P. falciparum strains 3D7 (Africa; CQ sensitive) and W2 (Africa; CQ resistant), were acquired from Malaria Research and Reference Reagent Resource Center (MR4) (Manassas, VA, USA) and maintained with type O +ve erythrocytes suspended in continuous complete culture medium as described. Complete culture media consisted of 10.43 g/litre of RPMI 1640-HEPES supplemented with 10% (vol/vol) human AB serum, 92.6 mg/litre L-glutamine, 50 mg/liter hypoxanthine, 2 g/litre sodium bicarbonate (Sigma-Aldrich, St. Louis, MO). Incubation of cultures was at 37 °C and maintained in a low oxygen atmosphere (5% O2, 5% CO2, 90% N). The levels of parasitemia in the cultures were maintained at between 2 and 10%, with 5% hematocrit. Media was changed after every 24 hours and parasitemia monitored every 48 hours. Synchronous cultures were prepared by sorbitol lysis. Stock solutions of the Pht, Pht analogues, and DHA were prepared in absolute dimethyl sulfoxide (DMSO) while CQ was prepared in distilled water. The prepared drug stock solutions were used immediately or stored at −80 °C for not longer than one month before use. Stock solutions were further diluted in serum free RPMI 1640 media (stock solution solvent final conc. 0.05%) before performing a 2-fold serial dilution to achieve dose ranges of 0.2 µM to 100 µM (Pht and derivatives), 7.8 to 2,000 nM (CQ) and 0.17 to 87.5 nM (DHA). 25 μL of the drug diluents were aliquoted into 96 well plates and used immediately. Alternatively, the stock solutions were diluted in distilled water, 2-fold serial dilution performed on a 96 well plate and allowed to air dry in a laminar flow hood after which dried plates were stored at 4 °C until use. SYBR Green I assay technique with additional modification was used for drug susceptibility testing of the parasites. Parasite cultures of >1% parasitemia were diluted to 1% parasitemia and 2% hematocrit and 200 μL were transferred onto drug pre-dosed plates and incubated at 37 °C for 90 hours, [40]. Drug exposure was terminated by freezing the drug plates at −80 °C for 24 hours after which lysis buffer containing (per liter) 100 mM Tris-HCl, 10 mM EDTA, 0.016% Saponin, 1.6% triton X-100 and 20X SYBR Green I dye was added and the sample incubated for 2 hours in the dark. Relative fluorescence units (RFU) were read using the Perkin Elmer Wallac 1420 fluorescence plate reader, with excitation and emission wavelengths of 485 nm and 535 nm respectively. The readouts values were aligned with corresponding drug doses and analysis performed by Graph-pad Prism software. The drug concentrations (x value) were transformed using X = Log[X] and plotted against the counts (y values) and the data analysed by non-linear regression (sigmoid dose-response/variable slope equation) to yield the IC50.

Setting [2] is: SYBR Green, mean of three experiments, NDR / No IC50 = no dose response.
[3] abbreviates: 3D7, Pf3D7, asynchronous culture, SYBR Green, mean of three experiments, NDR / No IC50 = no dose response, read-out: IC50 (SE) µM.
Where [4] appears, read: 3D7, Pf3D7, asynchronous culture, SYBR Green, mean of three experiments, NDR / No IC50 = no dose response, read-out: IC50 (SE) µg/mL.

`CCOC(=O)Cn1cc(Cn2c([C@@H](C(C)C)N3C(=O)c4ccccc4C3=O)nc3ccccc32)nn1` [6a′]: in data set [1] (setting [2]), the “IC50 (SE) µM” value is “No IC50” and the “IC50 (SE) µg/mL” value is “No IC50”.
Take `CC(C)[C@H](c1nc2ccccc2n1Cc1cn(CC(=O)O)nn1)N1C(=O)c2ccccc2C1=O` [6b′]: the figures for the IC50 in data set [1] (setting [3]) and in data set [1] (setting [4]) were 7.2 µM and 3.8 µg/mL, respectively.
On the same counts, the results for `CC(C)[C@H](c1nc2ccccc2n1Cc1cn(C2O[C@@H](CO)C(O)[C@@H](O)[C@@H]2O)nn1)N1C(=O)c2ccccc2C1=O` (stereo partly drawn) [6d′] are 48.3 µM and 20 µg/mL.
On the same counts, the results for `CCCCCCn1cc(Cn2c([C@@H](C(C)C)N3C(=O)c4ccccc4C3=O)nc3ccccc32)nn1` [6e′] are 16.7 µM and 6.9 µg/mL.
As for `CCN(CC)CCCC(C)Nc1ccnc2cc(Cl)ccc12` (stereo not drawn) [CQ, chloroquine, reference compound], the IC50 in data set [1] (3D7, read-out: IC50 (SE) µM) stood at 0.03 µM; in data set [1] (3D7, read-out: IC50 (SE) µg/mL), 0.015 µg/mL.
In the case of `CC(C)C[C@H](c1nc2ccccc2n1Cc1cn(-c2ccc(Cl)cc2)nn1)N1C(=O)c2ccccc2C1=O` [Compound 6b], in data set [1] (setting [2]), the “IC50 (SE) µM” value was “NDR” and the “IC50 (SE) µg/mL” value is “NDR”.
In the case of `CC(C)C[C@H](c1nc2ccccc2n1Cc1cn(-c2ccc(F)cc2)nn1)N1C(=O)c2ccccc2C1=O` [Compound 6c], the results for the IC50 in data set [1] (setting [3]) and in data set [1] (setting [4]) were 17.3 µM and 8.8 µg/mL, respectively.
In the case of `COc1ccc(-n2cc(Cn3c([C@@H](CC(C)C)N4C(=O)c5ccccc5C4=O)nc4ccccc43)nn2)cc1` [Compound 6d], in data set [1] (setting [2]), the “IC50 (SE) µM” value is “NDR” and the “IC50 (SE) µg/mL” value is recorded as “NDR”.
`Cc1ccc(-n2cc(Cn3c([C@@H](CC(C)C)N4C(=O)c5ccccc5C4=O)nc4ccccc43)nn2)cc1` [Compound 6e]: the IC50 in data set [1] (setting [3]) is 25 µM; in data set [1] (setting [4]) it was 13 µg/mL.
What is called melting point is the temperature of the solid-liquid transition. Compound `CC[C@@H](C)[C@H](c1nc2ccccc2n1Cc1cn(-c2ccccc2)nn1)N1C(=O)c2ccccc2C1=O` [Compound 6f] yielded a melting point of 211 to 213 °C. For the same compound, in data set [1] (setting [2]), the “IC50 (SE) µM” value is given as “NDR” and the “IC50 (SE) µg/mL” value is given as “NDR”.
Compound `CC[C@@H](C)[C@H](c1nc2ccccc2n1Cc1cn(-c2ccc(Cl)cc2)nn1)N1C(=O)c2ccccc2C1=O` [Compound 6g] came in with a melting point of 194 to 196 °C. For the same compound, in data set [1] (setting [2]), the “IC50 (SE) µM” value was “NDR” and the “IC50 (SE) µg/mL” value is “NDR”.
The compound `CC[C@@H](C)[C@H](c1nc2ccccc2n1Cc1cn(-c2ccc(OC)cc2)nn1)N1C(=O)c2ccccc2C1=O` [Compound 6i] came in with a melting point of 135 to 137 °C. The IC50 in data set [1] (setting [3]) was 40 µM. Also, in data set [1] (setting [4]), the IC50 came out at 22.5 µg/mL.
`CC[C@@H](C)[C@H](c1nc2ccccc2n1Cc1cn(-c2ccc(C)cc2)nn1)N1C(=O)c2ccccc2C1=O` [Compound 6j] returned a melting point of 198 to 201 °C. For the same compound, the IC50 in data set [1] (setting [3]) was 73 µM. Also, the IC50 in data set [1] (setting [4]) was 33.4 µg/mL.
On the same counts, the results for `CC(C)[C@H](c1nc2ccccc2n1Cc1cn(-c2ccccc2)nn1)N1C(=O)c2ccccc2C1=O` [Compound 6k] are 221 to 223 °C, 30.9 µM and 16 µg/mL.
Consider `CC(C)[C@H](c1nc2ccccc2n1Cc1cn(-c2ccc(Cl)cc2)nn1)N1C(=O)c2ccccc2C1=O` [Compound 6l], for which the melting point fell in the range of 182 to 184 °C. In data set [1] (setting [2]), the “IC50 (SE) µM” value is reported as “NDR” and the “IC50 (SE) µg/mL” value was “NDR”.
Take `COc1ccc(-n2cc(Cn3c([C@@H](C(C)C)N4C(=O)c5ccccc5C4=O)nc4ccccc43)nn2)cc1` [Compound 6n]: the melting point was in the range of 125 to 127 °C. Also, the IC50 in data set [1] (setting [3]) came to 9.6 µM. Besides, in data set [1] (setting [4]), the IC50 is 5.5 µg/mL.
On the same counts, the results for `Cc1ccc(-n2cc(Cn3c([C@@H](C(C)C)N4C(=O)c5ccccc5C4=O)nc4ccccc43)nn2)cc1` [Compound 6o] are 169 to 171 °C, 23.5 µM and 17.5 µg/mL.
In the case of `CCOC(=O)Cn1cc(Cn2c([C@@H](CC(C)C)N3C(=O)c4ccccc4C3=O)nc3ccccc32)nn1` [Compound 6p], the melting point fell in the range of 147 to 149 °C. In addition, in data set [1] (setting [3]), the IC50 is 62 µM. In addition, in data set [1] (setting [4]), the IC50 came out at 31 µg/mL.
`CC(C)C[C@H](c1nc2ccccc2n1Cc1cn(CC(=O)O)nn1)N1C(=O)c2ccccc2C1=O` [Compound 6q]: the IC50 in data set [1] (setting [3]) came out at 8.4 µM; in data set [1] (setting [4]) it was 4.1 µg/mL.
`CCCCCCn1cc(Cn2c([C@@H](CC(C)C)N3C(=O)c4ccccc4C3=O)nc3ccccc32)nn1` [Compound 6t] yielded a melting point of 146 to 148 °C. The IC50 in data set [1] (setting [3]) is 28 µM. Also, the IC50 in data set [1] (setting [4]) was found to be 14 µg/mL.
With `CCOC(=O)Cn1cc(Cn2c([C@@H]([C@H](C)CC)N3C(=O)c4ccccc4C3=O)nc3ccccc32)nn1` [Compound 6v], in data set [1] (setting [2]), the “IC50 (SE) µM” value is given as “No IC50” and the “IC50 (SE) µg/mL” value was “No IC50”.
As for `CC[C@@H](C)[C@H](c1nc2ccccc2n1Cc1cn(CC(=O)O)nn1)N1C(=O)c2ccccc2C1=O` [Compound 6w], the IC50 in data set [1] (setting [3]) is 15.6 µM; in data set [1] (setting [4]), 11.6 µg/mL.
`CC[C@@H](C)[C@H](c1nc2ccccc2n1Cc1c[nH]nn1)N1C(=O)c2ccccc2C1=O` [Compound 6z]: in data set [1] (setting [2]), the “IC50 (SE) µM” value is “No IC50” and the “IC50 (SE) µg/mL” value is “No IC50”.
For the compound `C[C@H]1[C@@H](O)O[C@@H]2O[C@@]3(C)CC[C@H]4[C@H](C)CC[C@@H]1[C@@]24OO3` [DHA, dihydroartemisinin, reference compound], the results for the IC50 in data set [1] (setting [3]) and in data set [1] (setting [4]) were 0.003 µM and 0.0017 µg/mL, respectively.
On the same counts, the results for `O=C1NC(=O)c2ccccc21` [I, Phthalimide, reference compound] are 5.14 µM and 0.8 µg/mL.

The values above are taken from paper PMC5532363, “Synergistic blending of high-valued heterocycles inhibits growth of Plasmodium falciparum in culture and P. berghei infection in mouse model” (Scientific Reports, 2017).
